Data set [1] is described as follows: Inhibition of linoleic acid peroxidation induced by AAPH radical. The conditions noted are these: 100 μM, 37 °C, pH 7.4. Here is the method: The in vitro assays were performed at a concentration of 100 µM (a 10 mM stock solution in DMSO was used, from which several dilutions were made for the determination of IC50 values), at least in triplicate, and the standard deviation of absorbance was less than 10% of the mean. The compounds were diluted in 0.1% DMSO under sonification in an appropriate buffer in several dilutions. Statistical comparisons were made using Student’s t-test. A statistically significant difference was defined as p < 0.05. The results were compared to the corresponding reference compounds.
The determination of the ability of the synthesized compounds to inhibit linoleic acid peroxidation induced by the radical initiator 2,2-Azobis(2-amidinopropane) dihydrochloride (AAPH) was performed according to Hadjipavlou-Litina et al.. Ten microliters of the 16 mM sodium linoleate solution were added to the UV cuvette containing 0.93 mL of a 0.05 M phosphate buffer, pH 7.4, pre-thermostated at 37 °C. The oxidation reaction was initiated at 37 °C under air by the addition of 50 µL of a 40 mM AAPH solution, which was used as a free radical initiator. Oxidation was carried out in the presence of aliquots (10 µL) in the assay without antioxidants and monitored at 234 nm. Lipid oxidation was recorded in the presence of the same level of DMSO served as a negative control. results are compared to the appropriate standard compound Trolox.
In an attempt to assess the in vitro antioxidant potential of the synthesized compounds, their inhibitory activity against lipid peroxidation of linoleic acid sodium salt was examined, induced by AAPH radical under atmospheric oxygen at 37 °C. The anti-lipid peroxidation was recorded with UV spectrophotometrically. The assay is a quick and widely used method for the assessment of antioxidant activity.

Data set [2] concerns A549 cell line. In words: Cytotoxicity, MTT assay, A549 cells. The note with it: Homo sapiens, A549, 24 h, read-out: % Cytotoxicity A549 (100 μΜ).
Method: (§1) The determination of the cell viability of HaCaT cells and the cell toxicity of A549 and A375 cell lines was performed according to Myriagkou et al. [57], via the MTT (3-(4,5-dimethylthiazol-2-yl)-2,5-diphenyltetrazolium bromide) assay. In a 96-well plate, cells were seeded at specific concentrations (30 × 10^4 cells/mL for HaCaT cells and 20 × 10^4 cells/mL for A549 and A375 cells) and incubated (37 °C, 5% CO2) for 24 h. Following this first incubation period, solutions of the tested compounds at various concentrations were added to the cells, and the plates were incubated for an additional 24 h. Upon the second incubation period, the appropriate volume of MTT solution (1 mg/mL in PBS, filtrated through a 0.22-μm filter) was added to each well, and the plate was incubated for 4 h, during which formazan crystals were formed. The crystals were dissolved by addition of 100 μL od DMSO in each cell and after 30 min of stirring, the absorbance was recorded at 450 nm using a microplate reader. All tests were undertaken on three replicates and compared to the control (untreated cells), the blank (medium), and the reference control (cells treated with 100 μM silibinin).
(§2) The cytotoxicity of the novel compounds was also measured via the mehtylthiazol tetrazolium (MTT) assay.
Data set [3] has as its system A375 cell line. The data set can be described thus: Cytotoxicity, MTT assay, A375 cells. The note with it: Homo sapiens, A-375, 24 h, read-out: % Cytotoxicity A375 (100 μΜ).
Method: as §1, §2
The nature of data set [4]: Cell viability, MTT assay, HaCaT cells. The conditions noted are these: human.
Method: as §1, §2
For data set [5], the target named is T1, soybean lipoxygenase (LOX) (Glycine max, UniProt P08170).
T1 sequence (P08170 1-839): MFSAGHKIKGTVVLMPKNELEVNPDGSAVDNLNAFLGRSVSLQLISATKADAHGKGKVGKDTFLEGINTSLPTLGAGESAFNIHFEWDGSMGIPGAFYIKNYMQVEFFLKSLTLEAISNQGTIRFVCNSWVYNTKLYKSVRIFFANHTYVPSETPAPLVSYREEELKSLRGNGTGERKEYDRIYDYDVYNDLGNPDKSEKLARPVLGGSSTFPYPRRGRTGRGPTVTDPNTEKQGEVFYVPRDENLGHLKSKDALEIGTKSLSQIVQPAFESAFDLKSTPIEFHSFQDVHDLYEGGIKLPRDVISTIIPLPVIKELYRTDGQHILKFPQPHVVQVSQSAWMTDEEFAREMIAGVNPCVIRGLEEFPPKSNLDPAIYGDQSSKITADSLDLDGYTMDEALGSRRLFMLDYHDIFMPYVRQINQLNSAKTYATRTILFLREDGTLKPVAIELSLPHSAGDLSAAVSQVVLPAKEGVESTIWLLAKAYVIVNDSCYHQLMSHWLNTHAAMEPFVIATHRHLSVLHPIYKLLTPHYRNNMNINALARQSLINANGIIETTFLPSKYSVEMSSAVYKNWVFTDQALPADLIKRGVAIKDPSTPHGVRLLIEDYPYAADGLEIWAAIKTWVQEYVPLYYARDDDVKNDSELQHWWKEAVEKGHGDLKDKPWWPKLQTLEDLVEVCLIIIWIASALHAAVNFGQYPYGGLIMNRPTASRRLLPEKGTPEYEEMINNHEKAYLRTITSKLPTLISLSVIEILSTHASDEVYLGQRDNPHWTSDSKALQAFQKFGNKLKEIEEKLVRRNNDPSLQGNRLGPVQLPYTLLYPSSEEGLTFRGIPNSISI
In words: Soybean LOX inhibition in vitro. It counts as biochemical. The note with it: sodium linoleate substrate. Here is the method:
The compounds were diluted in 0.1% DMSO under sonification in an appropriate buffer in several dilutions. Statistical comparisons were made using Student’s t-test. A statistically significant difference was defined as p < 0.05.
The determination of the inhibition of soybean LOX for the synthesized compounds was performed according to Hadjipavlou-Litina et al.. The tested compounds were incubated at room temperature with sodium linoleate (0.1 mM) and 0.2 mL of enzyme solution (1/9 × 10^−4 w/v in saline). The method was based on the conversion of sodium linoleate to 13-hydroperoxylinoleic acid at 234 nm. In order to determine the […] values, different concentrations were used.
As evidence of anti-inflammatory activity, the quinolinone derivatives were examined for their ability to inhibit soybean lipoxygenase (LOX). LOX catalyzes the cleavage of arachidonic acid to leukotrienes that are found to play a crucial role in the pathogenesis of some inflammatory diseases.

The viability is the share of living cells, or the viability signal relative to a control. Read a high viability as less harm to the cells. For `C#CCNC(=O)c1c(O)c2ccccc2n(C)c1=O` [4a, 4-hydroxy-1-methyl-2-oxo-N-(prop-2-yn-1-yl)-1,2-dihydroquinoline-3-carboxamide], the “Inhibition of Linoleic Acid Peroxidation (% at 100 μΜ)” value (shortened to “Inhibition … (% at 100 μΜ)”) in data set [1] came to 42.7%. Besides, the cytotoxicity at 100 µM amounted to 0% in data set [2] and 7% in data set [3]. Further, the viability at 24 h, 100 µM in data set [4] turned out to be 61.5%.

As a reminder, the IC50 is the concentration at which inhibition is half-maximal. Higher therefore signals a need for much substance. `C#CCNC(=O)c1c(O)c2ccccc2n(Cc2ccccc2)c1=O` [4b, 1-benzyl-4-hydroxy-2-oxo-N-(prop-2-yn-1-yl)-1,2-dihydroquinoline-3-carboxamide]: the “Inhibition … (% at 100 μΜ)” value in data set [1] came to 14.7%. Also, the midpoint of inhibition in data set [5], the IC50, lay at 43.2 µM. Moreover, the cytotoxicity at 100 µM in data set [2] amounted to 45.7%; in data set [3] it was 7.6%. Moreover, in data set [4], the viability at 24 h, 100 µM stood at 88.7%.

As for `C#CCNC(=O)c1c(O)c2ccccc2n(CC)c1=O` [4c, 1-ethyl-4-hydroxy-2-oxo-N-(prop-2-yn-1-yl)-1,2-dihydroquinoline-3-carboxamide], the “Inhibition … (% at 100 μΜ)” value in data set [1] was 100%. The molecule further gave an IC50 in data set [5] of 22.5 µM. In addition, the values for the cytotoxicity at 100 µM in data set [2] and in data set [3] were 16.4% and 0.2%, respectively. For the same molecule, the viability at 24 h, 100 µM in data set [4] amounted to 90.5%.

`C#CCNC(=O)c1c(O)c2ccccc2n(CCCCCCCC)c1=O` [4e, 4-hydroxy-1-octyl-2-oxo-N-(prop-2-yn-1-yl)-1,2-dihydroquinoline-3-carboxamide]: in data set [1], the “Inhibition … (% at 100 μΜ)” value came to 34.9%. The molecule further returned an IC50 in data set [5] of 48.3 µM. The cytotoxicity at 100 µM in data set [2] turned out to be 33.7%; in data set [3], 22.6%. This molecule also displayed a viability at 24 h, 100 µM in data set [4] of 76.2%.

Consider `C#CCNC(=O)c1c(O)c2ccccc2n(CC=Cc2ccccc2)c1=O` [4g, 1-cinnamyl-4-hydroxy-2-oxo-N-(prop-2-yn-1-yl)-1,2-dihydroquinoline-3-carboxamide], for which, in data set [1], the “Inhibition … (% at 100 μΜ)” value is recorded as 27.6%. For the same molecule, in data set [5], the IC50 is 51.2 µM. For the same molecule, the cytotoxicity at 100 µM in data set [2] worked out at 35.2%; in data set [3], 11.7%. This molecule also returned a viability at 24 h, 100 µM in data set [4] of 100%.

`Cn1c(=O)c(C(=O)NCc2cn(Cc3ccccc3)nn2)c(O)c2ccccc21` [5a, N-((1-benzyl-1H-1,2,3-triazol-4-yl)methyl)-4-hydroxy-1-methyl-2-oxo-1,2-dihydroquinoline-3-carboxamide]: the “Inhibition … (% at 100 μΜ)” value in data set [1] amounted to 98.0%. The molecule further returned a half-inhibitory concentration (IC50) in data set [5] of 10 µM. For the same molecule, the values for the cytotoxicity at 100 µM in data set [2] and in data set [3] were 24.2% and 0%, respectively. For the same molecule, the viability at 24 h, 100 µM in data set [4] was 100%.

On to `O=C(NCc1cn(Cc2ccccc2)nn1)c1c(O)c2ccccc2n(Cc2ccccc2)c1=O` [5b, 1-benzyl-N-((1-benzyl-1H-1,2,3-triazol-4-yl)methyl)-4-hydroxy-2-oxo-1,2-dihydroquinoline-3-carboxamide], for which the “Inhibition … (% at 100 μΜ)” value in data set [1] was 89.0%. For the same molecule, the 50% inhibitory concentration (IC50) in data set [5] was determined as 46 µM. Besides, the cytotoxicity at 100 µM was determined as 49.9% in data set [2] and 0% in data set [3]. Moreover, the viability at 24 h, 100 µM in data set [4] came to 86.5%.

Take `CCn1c(=O)c(C(=O)NCc2cn(Cc3ccccc3)nn2)c(O)c2ccccc21` [5c, N-((1-benzyl-1H-1,2,3-triazol-4-yl)methyl)-1-ethyl-4-hydroxy-2-oxo-1,2-dihydroquinoline-3-carboxamide]: the “Inhibition … (% at 100 μΜ)” value in data set [1] turned out to be 94.0%. The molecule further showed a 50% inhibitory concentration (IC50) in data set [5] of 51.5 µM. Further, the cytotoxicity at 100 µM in data set [2] and in data set [3] was 0% each time. The same molecule returned a viability at 24 h, 100 µM in data set [4] of 100%.

For `CCn1c(=O)c(C(=O)NCc2cn(CCCc3ccccc3)nn2)c(O)c2ccccc21` [5d, 1-ethyl-4-hydroxy-2-oxo-N-((1-(3-phenylpropyl)-1H-1,2,3-triazol-4-yl)methyl)-1,2-dihydroquinoline-3-carboxamide], the “Inhibition … (% at 100 μΜ)” value in data set [1] turned out to be 92.0%. This molecule yielded an IC50 in data set [5] of 47.5 µM. For the same molecule, the cytotoxicity at 100 µM in data set [2] worked out at 28.9%; in data set [3], 10.5%. Besides, the viability at 24 h, 100 µM in data set [4] stood at 99.6%.

Consider `CCn1c(=O)c(C(=O)NCc2cn(C/C=C/c3ccccc3)nn2)c(O)c2ccccc21` [5e, (E)-N-((1-cinnamyl-1H-1,2,3-triazol-4-yl)methyl)-1-ethyl-4-hydroxy-2-oxo-1,2-dihydroquinoline-3-carboxamide], for which the “Inhibition … (% at 100 μΜ)” value in data set [1] is listed as 91.0%. Besides, the 50% inhibitory concentration (IC50) in data set [5] is 45 µM. The cytotoxicity at 100 µM was 7.3% in data set [2] and 35.2% in data set [3]. Further, the viability at 24 h, 100 µM in data set [4] was found to be 27.6%.

For `O=C(NCc1cn(Cc2ccccc2)nn1)c1c(O)c2ccccc2n(CCCc2ccccc2)c1=O` [5f, N-((1-benzyl-1H-1,2,3-triazol-4-yl)methyl)-4-hydroxy-2-oxo-1-(3-phenylpropyl)-1,2-dihydroquinoline-3-carboxamide], the “Inhibition … (% at 100 μΜ)” value in data set [1] was determined as 98.0%. For the same molecule, inhibition in data set [5] was half-maximal at 50 µM (IC50). Further, the cytotoxicity at 100 µM was 12.5% in data set [2] and 23.7% in data set [3]. In data set [4], this molecule yielded a viability at 24 h, 100 µM of 100%.

As to `CC(C)=CCn1c(=O)c(C(=O)NCc2cn(Cc3ccccc3)nn2)c(O)c2ccccc21` [5g, N-((1-benzyl-1H-1,2,3-triazol-4-yl)methyl)-4-hydroxy-1-(3-methylbut-2-en-1-yl)-2-oxo-1,2-dihydroquinoline-3-carboxamide], the “Inhibition … (% at 100 μΜ)” value in data set [1] is recorded as 83.0%. The molecule also had a 50% inhibitory concentration (IC50) in data set [5] of 75 µM. The cytotoxicity at 100 µM in data set [2] turned out to be 13.4%; in data set [3] it was 46.8%. Further, the viability at 24 h, 100 µM in data set [4] is 100%.

Regarding `CCn1c(=O)c(C(=O)NCc2cn(CC=C(C)C)nn2)c(O)c2ccccc21` [5i, 1-ethyl-4-hydroxy-N-((1-(3-methylbut-2-en-1-yl)-1H-1,2,3-triazol-4-yl)methyl)-2-oxo-1,2-dihydroquinoline-3-carboxamide], the “Inhibition … (% at 100 μΜ)” value in data set [1] turned out to be 96.0%. The same molecule had an IC50 in data set [5] of 70 µM.

Consider `COc1cc(C2Oc3cc([C@H]4Oc5cc(O)cc(O)c5C(=O)[C@@H]4O)ccc3OC2CO)ccc1O` (some centres unmarked) [Silibinin, silibinin, reference compound], for which the results for the cytotoxicity at 100 µM in data set [2] and in data set [3] were 57.4% and 12.6%, respectively. Moreover, the viability at 24 h, 100 µM in data set [4] turned out to be 47.2%.

In the case of `Cc1c(C)c2c(c(C)c1O)CCC(C)(C(=O)O)O2` (centres unmarked) [Trolox, reference compound], the “Inhibition … (% at 100 μΜ)” value in data set [1] came out at 88.0%.
